# Laboratory results reported in patent EP1191024A1, “Thiadiazines and their use as inhibitors of metalloproteinases” (Tschesche, Harald, priority 2000, dated 2002).
# pIC50, pKi: −log10 of the molar value.
# What was measured:
# MMPs = assay: Ki determination in microfluorometric assay (Cheng-Prusoff, enzyme not specified); format: biochemical, human; conditions: enzyme not given
# Experimental: (§1) The enzymatic activity was measured using a modified version of a resonance energy transfer fluorogenic assay as described^[26]. Progress curves were monitored by following the increase in fluorescence at 393 nm (λex = 328 nm), induced by the cleavage of the (7-methoxycoumarin-4-yl)acetyl-Pro-Leu-Gly-Leu-(3-[2,4-dinitro-phenyl]-L-2,3-diamino-propionyl)-Ala-Arg-NH2 (Mca-Pro-Leu-Gly-Leu-Dpa-Ala-Arg-NH2) fluorogenic substrate by MMPs. The fluorescent MCA-group is quenched by resonance energy transfer to the 2,4-dinitrophenyl group. Matrix metalloproteinases cleave this substrate at the Gly-Leu bond. Cleavage results in the loss of energy transfer and a large increase in fluorescence of the MCA group. This substrate is commercially available from Bachem, Switzerland.
# Enzyme inhibition assays were carried out in MRB which consisted of 50 mM HEPES/NaOH, pH 7.0, 10 mM CaCl2 and 0,02% (w/v) PEG 8000 at 25°C. […] After preincubation for 30 min at 25°C the reaction was started by addition of substrate and the plate was read on a SpectraFluor Plus (Tecan, Germany) plate reader with excitation at 330 nm and emission at 405 nm with the gain set to 150. […] The experiment was further controlled for background fluorescence of the substrate, for fluorescence of fully cleaved substrate and for fluorescence quenching or augmentation from solutions containing the test compounds. […]
# cdMMP-2 = cdMMP-2 (Homo sapiens, UniProt P08253); assay: MMP microfluorometric profiling assay (fluorogenic Mca-peptide substrate); format: biochemical; conditions: read-out: cdMMP-2 IC50
# Sequence of cdMMP-2 (P08253 110-446): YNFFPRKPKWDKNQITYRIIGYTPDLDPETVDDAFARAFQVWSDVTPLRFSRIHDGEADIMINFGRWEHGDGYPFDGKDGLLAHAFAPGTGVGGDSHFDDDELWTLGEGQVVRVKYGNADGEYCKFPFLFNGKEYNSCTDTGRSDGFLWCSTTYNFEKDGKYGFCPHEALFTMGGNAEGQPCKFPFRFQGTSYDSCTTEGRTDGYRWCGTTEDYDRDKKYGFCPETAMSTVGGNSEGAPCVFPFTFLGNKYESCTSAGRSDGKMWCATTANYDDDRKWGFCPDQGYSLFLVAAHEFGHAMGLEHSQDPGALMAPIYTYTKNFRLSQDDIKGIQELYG
# Experimental: The tested MMP enzymes were prepared more specifically in the laboratories of the applicants, with the exception of MMP-1. MMP-1 from human rheumatoid synovial fibroblasts was purchased from Calbiochem-Novabiochem Corporation, LaJolla. Preparation of the recombinant catalytic domain of human Gelatinase A (cdMMP-2): The catalytic domain of Pro-Gelatinase A was prepared using an E. coli expression system according to the method described by Kröger et al^[19]. The proenzyme was activated with 0.5 mM APMA at 37°C prior to use in the assay. […] Preparation of PMNL-Gelatinase (MMP-9): Latent PMNL-pro-Gelatinase was prepared from human plasma buffy coat as described by Tschesche et al^[21]. PMNL-pro-Gelatinase was activated prior to use by incubation with Trypsin at 37°C for 10 min. Inactivation of Trypsin was accomplished with TKI. […] The overexpressed protein was isolated as inclusion bodies and the renatured protein was purified by affinity chromatography with a hydroxamate inhibitor coupled column as described^[22]. Preparation of the recombinant catalytic domain of human Collagenase-3 (cdMMP-13): Human pro-cdMMP-13 was prepared using an E. coli expression system according to the method described^[23]. The isolated pro-cdMMP-13 was activated prior to use by incubation with 5 mM HgCl2 for 2 h at 37°C.
# as §1
# (§2) Enzyme inhibition assays were carried out in MRB which consisted of 50 mM HEPES/NaOH, pH 7.0, 10 mM CaCl2 and 0,02% (w/v) PEG 8000 at 25°C. MMP microfluorometric profiling assay was done in white U-bottomed 96-well plates (Microfluor 1 White, Dynex, USA) with a final substrate concentration of 6 µM MCA-peptide, approximately 0.3 to 5 nM MMP with variable inhibitor concentrations and 2% DMSO vehicle. From a 1.5 mM stock (100% DMSO) the inhibitors were serially diluted with MRB to 15, 10, 5, 3, 1, 0.6, 0.3, 0.1, 0.05, 0.01 and 0.005 µM final assay concentration. Column 1, rows A through H, contained only DMSO for the "enzyme-only" wells in the assay. After preincubation for 30 min at 25°C the reaction was started by addition of substrate and the plate was read on a SpectraFluor Plus (Tecan, Germany) plate reader with excitation at 330 nm and emission at 405 nm with the gain set to 150. Each measurement was done in triplicate to ensure statistically significant results. The experiment was further controlled for background fluorescence of the substrate, for fluorescence of fully cleaved substrate and for fluorescence quenching or augmentation from solutions containing the test compounds.
# Datapoints from eight different MMPs generated on the SpectraFluor Plus were directly visualized on a master Excel spreadsheet. The response of inhibition was determinated for each inhibitor concentration by comparing the amount of hydrolysis (fluorescence units generated over 30 minutes of hydrolysis) of wells containing compound with the "enzyme-only" wells in column 1. With the program GraFit (Erithacus Software Limited) a 4 parameter logistic fit to the dose-response data was used to calculate IC50 values for each compound.
# cdMMP-14 = molecular target: T1, cdMMP-14 (Homo sapiens, UniProt P50281); assay: as above; format: biochemical
# T1 construct: made in house; host or cells: E. coli
# Experimental: (§3) The tested MMP enzymes were prepared more specifically in the laboratories of the applicants, with the exception of MMP-1. MMP-1 from human rheumatoid synovial fibroblasts was purchased from Calbiochem-Novabiochem Corporation, LaJolla. Preparation of the recombinant catalytic domain of human Gelatinase A (cdMMP-2): The catalytic domain of Pro-Gelatinase A was prepared using an E. coli expression system according to the method described by Kröger et al^[19]. The proenzyme was activated with 0.5 mM APMA at 37°C prior to use in the assay. Preparation of the recombinant catalytic domain of human neutrophile Collagenase (cdMMP-8^Met80): The enzyme was expressed in E. coli as an active variant by the method of Kleine et al^[20]. Preparation of PMNL-Gelatinase (MMP-9): Latent PMNL-pro-Gelatinase was prepared from human plasma buffy coat as described by Tschesche et al^[21]. PMNL-pro-Gelatinase was activated prior to use by incubation with Trypsin at 37°C for 10 min. Inactivation of Trypsin was accomplished with TKI. Preparation of the recombinant catalytic domain of human Macrophage Elastase (cdMMP-12): The catalytic domain of MMP-12 was expressed in E. coli. The overexpressed protein was isolated as inclusion bodies and the renatured protein was purified by affinity chromatography with a hydroxamate inhibitor coupled column as described^[22]. Preparation of the recombinant catalytic domain of human Collagenase-3 (cdMMP-13): Human pro-cdMMP-13 was prepared using an E. coli expression system according to the method described^[23]. The isolated pro-cdMMP-13 was activated prior to use by incubation with 5 mM HgCl2 for 2 h at 37°C. Preparation of the recombinant catalytic domain of Membrane-Type-1 MMP (cdMMP-14): The catalytic domain of MMP-14 was expressed in E. coli and was activated by autocatalysis^[24]. Preparation of the recombinant human ectodomain of Membrane-Type-1 MMP (ΔTM-MMP-14): The ectodomain of MMP-14 was expressed in Pichia Pastoris by the method of Roderfeld et al. and activated by yeast proteases (Furin-like-proteases) during maturation^[25].
# as §1
# as §2, with “The experiment was further controlled for background fluorescence of the substrate, for fluorescence of fully cleaved substrate and for fluorescence quenching or augmentation from solutions containing the test compounds.” left out
# MMP-9 = molecular target: T2, MMP-9 (Homo sapiens, UniProt P14780); assay: as above; format: biochemical
# T2 construct: from tissue; host or cells: human plasma buffy coat (PMNL)
# T2 sequence (P14780 107-707 limits assumed): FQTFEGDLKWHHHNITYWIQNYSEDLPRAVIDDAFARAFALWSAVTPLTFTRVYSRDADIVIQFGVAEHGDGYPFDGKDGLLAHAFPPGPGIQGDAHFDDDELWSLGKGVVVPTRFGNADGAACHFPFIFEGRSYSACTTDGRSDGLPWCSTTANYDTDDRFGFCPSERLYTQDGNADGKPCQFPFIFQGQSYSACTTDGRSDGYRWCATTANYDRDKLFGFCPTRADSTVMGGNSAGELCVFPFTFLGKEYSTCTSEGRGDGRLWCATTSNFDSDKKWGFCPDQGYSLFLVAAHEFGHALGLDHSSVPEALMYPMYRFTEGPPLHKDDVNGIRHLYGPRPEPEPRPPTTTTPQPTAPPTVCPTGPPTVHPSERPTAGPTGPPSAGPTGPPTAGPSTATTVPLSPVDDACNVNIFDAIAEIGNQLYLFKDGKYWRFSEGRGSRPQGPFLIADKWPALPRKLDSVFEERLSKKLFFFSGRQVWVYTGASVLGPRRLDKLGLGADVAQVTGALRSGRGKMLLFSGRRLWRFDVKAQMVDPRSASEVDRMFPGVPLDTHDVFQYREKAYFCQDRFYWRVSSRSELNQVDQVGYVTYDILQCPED
# Experimental: as §3, §1
# as §2, with “The experiment was further controlled for background fluorescence of the substrate, for fluorescence of fully cleaved substrate and for fluorescence quenching or augmentation from solutions containing the test compounds.” left out
# cdMMP-13 = cdMMP-13 (Homo sapiens, UniProt P45452); assay: as above; format: biochemical; conditions: read-out: cdMMP-13 IC50
# Experimental: as §3, §1
# as §2, with “The experiment was further controlled for background fluorescence of the substrate, for fluorescence of fully cleaved substrate and for fluorescence quenching or augmentation from solutions containing the test compounds.” left out
# MMP-1 = molecular target: T3, MMP-1 (Homo sapiens, UniProt P03956); assay: as above; format: biochemical
# T3 construct: MMP-1 from human rheumatoid synovial fibroblasts was purchased; purchased Calbiochem-Novabiochem Corporation, LaJolla; host or cells: human rheumatoid synovial fibroblasts
# T3 sequence (P03956 100-469): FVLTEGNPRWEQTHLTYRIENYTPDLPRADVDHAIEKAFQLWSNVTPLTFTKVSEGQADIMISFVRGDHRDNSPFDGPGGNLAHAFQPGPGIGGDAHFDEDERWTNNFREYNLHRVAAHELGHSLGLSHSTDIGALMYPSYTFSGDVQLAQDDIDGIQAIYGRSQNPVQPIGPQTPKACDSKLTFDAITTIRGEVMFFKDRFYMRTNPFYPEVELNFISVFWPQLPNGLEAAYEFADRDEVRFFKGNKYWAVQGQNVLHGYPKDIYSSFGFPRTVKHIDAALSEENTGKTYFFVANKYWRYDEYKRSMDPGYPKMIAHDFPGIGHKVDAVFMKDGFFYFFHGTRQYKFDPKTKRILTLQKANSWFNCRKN
# Experimental: as §3, §1
# as §2, with “The experiment was further controlled for background fluorescence of the substrate, for fluorescence of fully cleaved substrate and for fluorescence quenching or augmentation from solutions containing the test compounds.” left out
# cdMMP-12 = molecular target: T4, cdMMP-12 (Homo sapiens, UniProt P39900); assay: as above; format: biochemical
# T4 construct: The catalytic domain of MMP-12 was expressed in E. coli; made in house; host or cells: E. coli
# T4 sequence (P39900 106-263 limits assumed): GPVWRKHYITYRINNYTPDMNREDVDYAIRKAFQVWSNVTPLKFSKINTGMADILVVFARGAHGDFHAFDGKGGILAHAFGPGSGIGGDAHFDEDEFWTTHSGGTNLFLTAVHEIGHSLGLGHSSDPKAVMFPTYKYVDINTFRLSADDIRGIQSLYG
# Experimental: as §3, §1
# as §2, with “The experiment was further controlled for background fluorescence of the substrate, for fluorescence of fully cleaved substrate and for fluorescence quenching or augmentation from solutions containing the test compounds.” left out
pKi (MMPs),pIC50 (cdMMP-2),pIC50 (cdMMP-14),pIC50 (MMP-9),pIC50 (cdMMP-13),pIC50 (MMP-1),pIC50 (cdMMP-12),SMILES
~7.00,–,–,–,–,–,–,"CC(C)(NS(=O)(=O)c1ccccc1)C(=O)NC1=NN=C(c2ccc(Cl)cc2)CS1 [Example 20, N-[5-(4-Chlorophenyl)-6H-1,3,4-thiadiazin-2-yl]-2-methyl-2-[(phenylsulfonyl)-amino]propanamide]"
–,6.13,6.08,6.16,5.93,6.30,6.47,"C[C@H](NS(=O)(=O)c1ccccc1)C(=O)NC1=NN=C(c2ccc(F)cc2)CS1 [Example 13, (2S)-N-[5-(4-Fluorophenyl)-6H-1,3,4-thiadiazin-2-yl]-2-[(phenylsulfonyl)amino]-propanamide]"
